In assay [1] the target is T1, Tyrosine-protein phosphatase non-receptor type 1 (Homo sapiens, UniProt P18031).
T1 sequence (P18031 whole entry): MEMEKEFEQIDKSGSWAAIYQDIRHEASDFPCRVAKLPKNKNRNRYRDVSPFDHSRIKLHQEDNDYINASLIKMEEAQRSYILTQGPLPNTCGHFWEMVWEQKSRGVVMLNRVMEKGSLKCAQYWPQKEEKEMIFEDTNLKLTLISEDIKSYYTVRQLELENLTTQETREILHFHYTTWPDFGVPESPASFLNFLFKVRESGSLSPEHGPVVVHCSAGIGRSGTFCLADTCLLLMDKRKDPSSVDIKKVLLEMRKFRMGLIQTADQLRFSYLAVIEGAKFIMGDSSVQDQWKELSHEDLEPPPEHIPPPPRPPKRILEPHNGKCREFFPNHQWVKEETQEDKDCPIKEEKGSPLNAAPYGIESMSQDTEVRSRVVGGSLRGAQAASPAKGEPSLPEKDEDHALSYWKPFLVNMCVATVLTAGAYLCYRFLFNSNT
Nature of the assay: Inhibitory activity tested against Protein-tyrosine phosphatase 1B (PTP1B).

In assay [2] the target is T2, Tyrosine-protein phosphatase non-receptor type 2 (Homo sapiens, UniProt P17706).
T2 sequence (P17706 whole entry): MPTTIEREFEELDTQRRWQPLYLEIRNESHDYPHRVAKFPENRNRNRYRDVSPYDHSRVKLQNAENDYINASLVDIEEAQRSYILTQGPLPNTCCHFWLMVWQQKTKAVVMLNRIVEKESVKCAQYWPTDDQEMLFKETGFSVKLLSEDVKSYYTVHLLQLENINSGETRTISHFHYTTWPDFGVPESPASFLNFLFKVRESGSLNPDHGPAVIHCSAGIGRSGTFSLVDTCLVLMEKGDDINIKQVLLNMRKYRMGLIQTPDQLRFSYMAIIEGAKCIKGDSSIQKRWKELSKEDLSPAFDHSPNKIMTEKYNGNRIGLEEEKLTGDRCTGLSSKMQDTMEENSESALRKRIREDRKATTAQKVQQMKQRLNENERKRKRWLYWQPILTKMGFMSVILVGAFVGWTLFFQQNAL
Kind of assay: Inhibitory activity tested against T-cell Protein tyrosine phosphatase 2 (TCPTP).

The target in assay [3] is T3, Receptor-type tyrosine-protein phosphatase C (Homo sapiens, UniProt P08575).
T3 sequence (P08575 whole entry): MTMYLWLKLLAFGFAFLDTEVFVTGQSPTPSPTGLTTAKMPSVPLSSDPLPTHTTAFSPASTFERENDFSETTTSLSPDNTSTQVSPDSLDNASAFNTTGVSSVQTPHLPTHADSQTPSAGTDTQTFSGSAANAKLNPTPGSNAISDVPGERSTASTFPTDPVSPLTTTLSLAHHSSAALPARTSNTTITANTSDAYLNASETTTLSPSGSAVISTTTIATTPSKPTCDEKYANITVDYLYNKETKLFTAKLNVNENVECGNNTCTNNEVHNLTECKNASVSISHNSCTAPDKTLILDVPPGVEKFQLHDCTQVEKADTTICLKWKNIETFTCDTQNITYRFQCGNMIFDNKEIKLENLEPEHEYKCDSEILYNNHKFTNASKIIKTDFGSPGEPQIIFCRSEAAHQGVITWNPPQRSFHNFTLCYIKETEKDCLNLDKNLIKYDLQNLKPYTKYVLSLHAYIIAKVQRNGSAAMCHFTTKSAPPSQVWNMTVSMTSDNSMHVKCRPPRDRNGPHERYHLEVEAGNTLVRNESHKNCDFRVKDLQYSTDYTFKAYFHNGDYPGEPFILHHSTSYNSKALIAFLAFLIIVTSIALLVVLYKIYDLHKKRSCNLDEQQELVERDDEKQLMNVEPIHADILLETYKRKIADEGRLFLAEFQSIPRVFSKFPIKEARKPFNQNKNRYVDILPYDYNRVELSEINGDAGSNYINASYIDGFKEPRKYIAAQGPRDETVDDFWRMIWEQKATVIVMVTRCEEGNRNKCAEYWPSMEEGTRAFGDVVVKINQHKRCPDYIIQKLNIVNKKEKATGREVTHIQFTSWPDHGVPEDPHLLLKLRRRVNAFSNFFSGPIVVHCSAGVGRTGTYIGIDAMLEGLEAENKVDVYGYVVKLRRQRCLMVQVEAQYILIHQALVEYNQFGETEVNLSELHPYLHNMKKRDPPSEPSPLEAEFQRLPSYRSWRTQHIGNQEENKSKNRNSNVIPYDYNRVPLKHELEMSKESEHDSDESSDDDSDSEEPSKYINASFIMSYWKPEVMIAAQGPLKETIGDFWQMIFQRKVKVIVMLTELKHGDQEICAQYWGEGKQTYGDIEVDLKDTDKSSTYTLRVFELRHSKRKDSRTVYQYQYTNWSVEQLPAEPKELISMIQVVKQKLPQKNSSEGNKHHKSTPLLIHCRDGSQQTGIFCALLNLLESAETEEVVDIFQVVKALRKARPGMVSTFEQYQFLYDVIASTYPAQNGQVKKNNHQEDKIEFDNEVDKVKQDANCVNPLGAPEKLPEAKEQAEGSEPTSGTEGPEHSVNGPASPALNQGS
Kind of assay: Inhibition of common leukocyte antigen CD45 phosphatase.

Assay [4] is described as follows: Inhibition of SHP-2 phosphatase.
A short description of assay [5]: Inhibition of LAR (leukocyte common antigen-related) phosphatase.
Assay [6] deals with T4, M-phase inducer phosphatase 3 (Homo sapiens, UniProt P30307).
T4 sequence (P30307 whole entry): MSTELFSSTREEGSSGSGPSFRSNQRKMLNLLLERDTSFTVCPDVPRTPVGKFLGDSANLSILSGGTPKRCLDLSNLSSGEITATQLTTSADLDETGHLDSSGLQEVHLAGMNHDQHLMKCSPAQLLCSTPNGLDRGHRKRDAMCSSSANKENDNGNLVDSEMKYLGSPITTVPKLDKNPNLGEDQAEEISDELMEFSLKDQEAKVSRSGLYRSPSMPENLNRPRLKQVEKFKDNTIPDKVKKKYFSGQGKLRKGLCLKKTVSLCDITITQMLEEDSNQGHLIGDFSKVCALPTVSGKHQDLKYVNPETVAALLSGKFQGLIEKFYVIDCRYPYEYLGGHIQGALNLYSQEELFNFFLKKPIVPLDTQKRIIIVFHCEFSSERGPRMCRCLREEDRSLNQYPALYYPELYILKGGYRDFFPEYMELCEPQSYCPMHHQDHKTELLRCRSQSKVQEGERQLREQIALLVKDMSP
Kind of assay: Inhibition of Cell division cycle 25 (Cdc25) phosphatase.

pKi: −log10 of the molar value. Some results are limits rather than exact numbers.

As for `CCCC[C@H](NC(=O)CCCCNC(=O)C(Cc1ccc(N(C(=O)C(=O)O)c2ccccc2C(=O)O)c(CC)c1)NC(C)=O)C(=O)O` (stereo not given in full), the pKi is 6.92 in assay [1] and 6.62 in assay [2].
`CCc1cc(CC(NC(C)=O)C(=O)NCCCCC(=O)N[C@@H](CCCCN)C(=O)O)ccc1N(C(=O)C(=O)O)c1ccccc1C(=O)O` (stereo not given in full): the negative logarithm of the Ki (pKi) in assay [1] was 6.15; in assay [2] it was 6.09.
As for `CCc1cc(CC(NC(C)=O)C(=O)NCCCCC(=O)N[C@@H](CCS(C)(=O)=O)C(=O)O)ccc1N(C(=O)C(=O)O)c1ccccc1C(=O)O` (stereo not given in full), the pKi in assay [1] was 6.33; in assay [2], 6.43.
In the case of `CCc1cc(CC(NC(C)=O)C(=O)NCCCCC(=O)N[C@H](C(=O)O)C2CCCCC2)ccc1N(C(=O)C(=O)O)c1ccccc1C(=O)O` (stereo not given in full), the figures for the negative logarithm of the Ki (pKi) in assay [1] and in assay [2] were 6.60 and 6.54, respectively.
On to `CCc1cc(CC(NC(C)=O)C(=O)NCCCCC(=O)NC(Cc2ccccc2)C(N)=O)ccc1N(C(=O)C(=O)O)c1ccccc1C(=O)O` (stereo not given), for which the pKi is 5.89 in assay [1] and 6.15 in assay [2].
For the compound `CCc1cc(CC(NC(C)=O)C(=O)NCCCCC(=O)NCCc2ccccc2)ccc1N(C(=O)C(=O)O)c1ccccc1C(=O)O` (stereo not given), the pKi was 5.47 in assay [1] and 5.85 in assay [2].
`CCc1cc(CC(NC(C)=O)C(=O)NCCCCC(=O)N[C@H](C(=O)O)C(C)CC)ccc1N(C(=O)C(=O)O)c1ccccc1C(=O)O` (stereo not given in full): the figures for the negative logarithm of the Ki (pKi) in assay [1] and in assay [2] were 6.37 and 6.40, respectively.
With `CCc1cc(CC(NC(C)=O)C(=O)NCCCCC(=O)O)ccc1N(C(=O)C(=O)O)c1ccccc1C(=O)O` (stereo not given), the negative-log Ki (pKi) in assay [1] was 5.60; in assay [2], 5.66.
For the compound `CCc1cc(CC(NC(C)=O)C(=O)NCCCCC(=O)N[C@@H](CCC(N)=O)C(=O)O)ccc1N(C(=O)C(=O)O)c1ccccc1C(=O)O` (stereo not given in full), the pKi was 6.48 in assay [1] and 6.57 in assay [2].
Regarding `CCc1cc(CC(NC(C)=O)C(=O)NCCCCC(=O)N[C@@H](CCSC)C(=O)O)ccc1N(C(=O)C(=O)O)c1ccccc1C(=O)O` (stereo not given in full), the pKi in assay [3] is under 3.52; in assay [4] it was 4.14; in assay [5], 5.06; in assay [6], under 3.52.
On to `CCc1cc(CC(NC(C)=O)C(=O)NCc2ccc([N+](=O)[O-])cc2)ccc1N(C(=O)C(=O)O)c1ccccc1C(=O)O` (stereo not given), for which the figures for the negative logarithm of the Ki (pKi) in assay [1] and in assay [2] were 6.27 and 6.35, respectively.
For `CCc1cc(CC(NC(C)=O)C(=O)NCc2ccc(OC)cc2)ccc1N(C(=O)C(=O)O)c1ccccc1C(=O)O` (stereo not given), the negative-log Ki (pKi) in assay [1] is 5.33; in assay [2], 5.44.
Take `CCc1cc(CC(NC(C)=O)C(=O)NCCCCC(=O)N[C@@H](Cc2ccccc2)C(=O)O)ccc1N(C(=O)C(=O)O)c1ccccc1C(=O)O` (stereo not given in full): the pKi in assay [1] is 6.85; in assay [2] it was 6.80.
Turning to `CCc1cc(CC(NC(C)=O)C(=O)NCc2ccc(Cl)cc2)ccc1N(C(=O)C(=O)O)c1ccccc1C(=O)O` (stereo not given), the pKi in assay [1] was 5.92; in assay [2], 5.82.
For the compound `CCSCC[C@H](NC(=O)CCCCNC(=O)C(Cc1ccc(N(C(=O)C(=O)O)c2ccccc2C(=O)O)c(CC)c1)NC(C)=O)C(=O)O` (stereo not given in full), the negative-log Ki (pKi) was 6.89 in assay [1] and 6.29 in assay [2].
In assay [1], `CCc1cc(CC(NC(C)=O)C(=O)NCCCCC(=O)N[C@H](CCSC)C(=O)O)ccc1N(C(=O)C(=O)O)c1ccccc1C(=O)O` (stereo not given in full) gave a pKi of 5.77.
For the compound `CCc1cc(CC(NC(C)=O)C(=O)NCCCCC(=O)N[C@@H](CCSC)C(=O)OC)ccc1N(C(=O)C(=O)O)c1ccccc1C(=O)O` (stereo not given in full), the values for the pKi in assay [1] and in assay [2] were 6.27 and 6.17, respectively.

What is called pKi is the negative decadic logarithm of the Ki, by convention in mol/L. A low value points to a high Ki.

(Values after ChEMBL document CHEMBL1136518, “Potent, selective inhibitors of protein tyrosine phosphatase 1B” (Bioorg Med Chem Lett, 2003).)
